Data set [1] has as its target T1, human type PPAR α ligand-binding domain fused with yeast transcription factor DNA-binding domain (Homo sapiens, UniProt Q07869).
T1 sequence (Q07869 239-466 limits assumed): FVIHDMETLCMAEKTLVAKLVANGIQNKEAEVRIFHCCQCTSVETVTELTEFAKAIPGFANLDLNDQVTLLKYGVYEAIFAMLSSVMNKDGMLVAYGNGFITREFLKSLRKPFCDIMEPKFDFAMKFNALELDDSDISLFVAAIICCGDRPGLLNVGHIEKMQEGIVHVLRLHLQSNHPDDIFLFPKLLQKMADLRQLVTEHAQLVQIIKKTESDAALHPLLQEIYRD
Description: Test of transactivation on peroxisome proliferator-activated receptor α (GAL4 DNA-binding domain/PPAR ligand-binding domain reporter in CHO cells).
Description: (§1) Test of Transactivation on Peroxisome Proliferator-activated Receptors α and γ
(§2) After 24 hours, CAT activity and β-galactosidase activity were measured.

The target in data set [2] is T2, human type PPAR γ ligand-binding domain fused with yeast transcription factor DNA-binding domain (Homo sapiens, UniProt P37231).
T2 sequence (P37231 238-503 limits assumed): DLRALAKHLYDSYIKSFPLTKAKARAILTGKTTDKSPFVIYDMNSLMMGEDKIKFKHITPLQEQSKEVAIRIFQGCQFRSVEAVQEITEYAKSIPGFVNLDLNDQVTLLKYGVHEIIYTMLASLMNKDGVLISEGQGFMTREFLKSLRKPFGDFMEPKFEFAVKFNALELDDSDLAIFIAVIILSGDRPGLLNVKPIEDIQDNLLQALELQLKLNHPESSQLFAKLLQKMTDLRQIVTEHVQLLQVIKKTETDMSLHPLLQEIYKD
Description: Test of transactivation on peroxisome proliferator-activated receptor γ (GAL4 DNA-binding domain/PPAR ligand-binding domain reporter in CHO cells).
Description: as §1, §2

Like-named read-outs stand apart in the source and are kept apart here.

In general, EC50 refers to the concentration giving half of the maximal effect. As a reminder, the melting point is the temperature, or range, at which the solid turns liquid.

The compound `COc1ccc(CC2SC(=O)NC2=O)cc1C(=O)NCc1ccc(OCc2ccccc2)cc1` (stereo not drawn) [Example 1] showed a melting point of 131 to 132.5 °C. The EC50 in data set [1] stood at 440 nM.
As for `COc1ccc(CC2SC(=O)NC2=O)cc1C(=O)NCc1ccc(Oc2ccccc2)cc1` (stereo not drawn) (hydrate or solvate) [Example 3], the melting point was 87 to 89 °C.
As to `COc1ccc(CC2SC(=O)NC2=O)cc1C(=O)NCc1ccc(Oc2ccccc2)cc1` (stereo not drawn) [Example 3], the EC50 in data set [1] and in data set [2] was 240 nM each time.
Turning to `COc1ccc(CC2SC(=O)NC2=O)cc1C(=O)NCc1ccc(-c2ccccc2)cc1` (stereo not drawn) [Example 2, N-[(Biphenyl-4-yl)Methyl]-5-[(2.4-Dioxothiazolidin-5-yl)Methyl]-2-Methloybenzamide], the melting point was 170.5 to 172 °C. Moreover, it took 630 nM to reach a half-maximal effect in data set [1] (EC50). In data set [2], the response was half-maximal at 6800 nM (EC50).
Take `CCCCC/C=C\C/C=C\C=C\[C@@H](O)C/C=C\CCCC(=O)O` [(8S)-HETE, reference compound]: in data set [1] (read-out: Transactivation action PPARα EC50, CHO cells, 24 hours, CAT activity with β-galactosidase internal standard), the EC50 was 1300 nM.

Source of the values: patent US6734199B1, “Substituted benzylthiazolidine-2, 4-dione derivatives” (Kyorin Pharmaceutical Co., Ltd., priority 1999, dated 2004).
